Converted amounts (≈) assume the structure as drawn. The source made the active and inactive calls. The calls are words filed in the database; no cut-off is given here.
Tests used:
[1] = Efflux ratio of permeability in human Caco2 cells at 10 uM after 60 mins by LC-MS/MS analysis; settings: Caco-2
[2] = Solubility of the compound in buffer
[3] = (§1) Intrinsic clearance in mouse liver microsomes at […] preincubated for 5 mins followed by NADPH addition measured by LC-MS/MS analysis; assay type: ADME, microsome; settings: liver microsomes, read-out: CLH
[4] = Apparent permeability across basolateral to apical side in human Caco2 cells at 10 uM after 60 mins by LC-MS/MS analysis; settings: Caco-2
[5] = Apparent permeability across apical to basolateral side in human Caco2 cells at 10 uM after 60 mins by LC-MS/MS analysis; settings: Caco-2
[6] = Drug metabolism in mouse liver microsomes at […] preincubated for 5 mins followed by NADPH addition measured after 30 mins by LC-MS/MS analysis; assay type: ADME, microsome; settings: read-out: Drug metabolism
[7] = target: Oxidized purine nucleoside triphosphate hydrolase (Homo sapiens) (UniProt P36639)
[8] = target: Oxidized purine nucleoside triphosphate hydrolase (Homo sapiens) (UniProt P36639); experiment: Inhibition of human full length MTH1 at 20 uM using 8-Oxo-2-dGTP as substrate preincubated for 15 mins followed substrate addition measured after 1 hr by PPilight pyrophosphate-detection based assay
[9] = Apparent permeability across apical to basolateral side in human Caco2 cells at 2 uM after 2 hrs by LC-MS/MS analysis; assay type: ADME, cell-based; settings: Caco-2
[10] = Efflux ratio of apparent permeability in human Caco2 cells at 2 uM after 2 hrs by LC-MS/MS analysis; settings: Caco-2
[11] = Apparent permeability across basolateral to apical side in human Caco2 cells at 2 uM after 2 hrs by LC-MS/MS analysis; assay type: ADME, cell-based; settings: Caco-2
Liver = experiment: as §1; assay type: ADME, microsome; settings: microsomes, 1000 µM

Row | SMILES | efflux ratio at 1 h, 10 µM [1] | solubility [2] [µM] | microsomal CLint at 1000 µM [3] [µL/min/mg] | Papp B→A at 1 h, 10 µM [4] [nm/s] | Papp A→B at 1 h, 10 µM [5] [nm/s] | metabolised at 0.5 h [6] [%] | other results
1 | CCNC(=O)c1cc2c(N3CCCC3c3ccccn3)ccnc2[nH]1 (centres undefined) | 4.7 | 500 (≈ 168 µg/mL) | 48 | 720 | 150 | 53 | –
2 | CNC(=O)c1cc2c(-c3cccnc3)ccnc2[nH]1 | – | 1000 (≈ 252 µg/mL) | – | – | – | – | ΔTm [7]: 14.4 °C
3 | O=C(NC1COC1)c1cc2c(N3CCCC3c3cccnc3)ccnc2[nH]1 (centres undefined) | – | – | 24 | – | – | 29 | –
4 | CCNC(=O)c1cc2c(N3CCOC[C@@H]3C)ccnc2n1C | – | – | – | – | – | – | inhibition [8]: inactive
5 | COC(C)(C)C1CCCN1c1ccnc2[nH]ncc12 (centres undefined) | 0.9 | 1000 (≈ 260 µg/mL) | 153 | 660 | 750 | 92 | –
6 | Clc1cccc(-c2ccnc3[nH]c(-c4cnco4)cc23)c1 | – | 50 (≈ 14.8 µg/mL) | – | – | – | – | –
7 | NC(=O)c1cc2c(-c3cccc(Cl)c3)ccnc2[nH]1 | – | 100 (≈ 27.2 µg/mL) | – | – | – | – | –
8 | c1cncc(C2CCCN2c2ccnc3[nH]ncc23)c1 (centres undefined) | 1.1 | 1000 (≈ 265 µg/mL) | 45 | 500 | 440 | 54 | –
9 | CCNC(=O)c1cc2c(N3CCOCC3C3CC3)ccnc2[nH]1 (centres undefined) | – | 500 (≈ 157 µg/mL) | 45 | – | – | 48 | Papp A→B at 2 h, 2 µM [9]: 240 nm/s; efflux ratio at 2 h, 2 µM [10]: 3.3; Papp B→A at 2 h, 2 µM [11]: 790 nm/s
10 | Clc1cccc(-c2ccnc3[nH]ncc23)c1 | – | 100 (≈ 23 µg/mL) | – | – | – | – | –
11 | N#Cc1cc2c(-c3cccc(Cl)c3)ccnc2[nH]1 | – | 250 (≈ 63.4 µg/mL) | – | – | – | – | –
12 | O=C(NC1COC1)c1cc2c(N3CCCC3c3ccccn3)ccnc2[nH]1 (centres undefined) | 6.7 | 250 (≈ 90.9 µg/mL) | 25 | 460 | 70 | 33 | –
13 | CCNC(=O)c1cc2c(N3CCCC3c3cccnc3)ccnc2[nH]1 (centres undefined) | 8.3 | 500 (≈ 168 µg/mL) | 49 | 310 | 40 | 52 | –
14 | CCOC(=O)c1ccnc2[nH]ccc12 | – | 2000 (≈ 380 µg/mL) | – | – | – | – | –
15 | CCNC(=O)c1cc2c(N3CCOC[C@@H]3C)ccnc2[nH]1 | – | 500 (≈ 144 µg/mL) | 36 | – | – | 43 | ΔTm [7]: 21 °C; Papp A→B at 2 h, 2 µM [9]: 1480 nm/s; Papp B→A at 2 h, 2 µM [11]: 2090 nm/s
16 | O=C(NC1CC1)c1cc2c(N3CCCC3c3ccccn3)ccnc2[nH]1 (centres undefined) | 5.7 | 250 (≈ 86.9 µg/mL) | 44 | 760 | 130 | 50 | –
17 | Cc1cc2c(-c3cccc(Cl)c3)ccnc2[nH]1 | – | 50 (≈ 12.1 µg/mL) | – | – | – | – | –
18 | O=C(NC1CC1)c1cc2c(-c3cccc(Cl)c3)ccnc2[nH]1 | 1 | 100 (≈ 31.2 µg/mL) | 115 | 180 | 180 | 83 | –
19 | CCNC(=O)c1cc2c(-c3cccc(Cl)c3)ccnc2[nH]1 | – | 250 (≈ 74.9 µg/mL) | – | – | – | – | –
20 | OCc1cc2c(-c3cccc(Cl)c3)ccnc2[nH]1 | – | 10 (≈ 2.59 µg/mL) | – | – | – | – | –
21 | CNC(=O)c1cc2c(-c3cccc(Cl)c3)ccnc2[nH]1 | – | 250 (≈ 71.4 µg/mL) | – | – | – | – | –
22 | CCNC(=O)c1cc2c(N3CCCC3C(C)(C)OC)ccnc2[nH]1 (centres undefined) | – | 1000 (≈ 330 µg/mL) | 54 | – | – | 56 | Papp A→B at 2 h, 2 µM [9]: 1700 nm/s; efflux ratio at 2 h, 2 µM [10]: 1.3; Papp B→A at 2 h, 2 µM [11]: 2250 nm/s
23 | CN(C)C(=O)c1cc2c(-c3cccc(Cl)c3)ccnc2[nH]1 | – | 250 (≈ 74.9 µg/mL) | – | – | – | – | –

Second part, led by results:

Row | efflux ratio at 1 h, 10 µM [1] | solubility [2] [µM] | microsomal CLint at 1000 µM [3] [µL/min/mg] | Papp B→A at 1 h, 10 µM [4] [nm/s] | Papp A→B at 1 h, 10 µM [5] [nm/s] | metabolised at 0.5 h [6] [%] | SMILES | other results
24 | – | 250 (≈ 57.2 µg/mL) | – | – | – | – | Clc1cccc(-c2ccnc3[nH]ccc23)c1 | –
25 | – | 10 (≈ 2.49 µg/mL) | – | – | – | – | c1ccc2c(c1)CCN(c1ccnc3[nH]ccc13)C2 | –
26 | 0.9 | 250 (≈ 62.8 µg/mL) | – | 350 | 390 | 100 | c1ccc2c(c1)OCCN2c1ccnc2[nH]ccc12 | microsomal intrinsic clearance (Liver): Unstable
27 | – | 250 (≈ 69.8 µg/mL) | – | – | – | – | c1ccc(C2CN(c3ccnc4[nH]ccc34)CCO2)cc1 (centres undefined) | –
28 | – | 500 (≈ 117 µg/mL) | – | – | – | – | c1cc(-c2cnc3[nH]ccc3c2)c2cc[nH]c2n1 | ΔTm [7]: 7.9 °C
29 | – | 250 (≈ 87.6 µg/mL) | 156 | – | – | 90 | CCNC(=O)c1cc2c(N3CCOCC3c3ccccc3)ccnc2[nH]1 (centres undefined) | Papp A→B at 2 h, 2 µM [9]: 630 nm/s; efflux ratio at 2 h, 2 µM [10]: 1.4; Papp B→A at 2 h, 2 µM [11]: 890 nm/s
30 | 0.8 | 1000 (≈ 280 µg/mL) | 232 | 730 | 880 | 97 | c1ccc(C2COCCN2c2ccnc3[nH]ncc23)cc1 (centres undefined) | –
31 | 0.7 | 250 (≈ 65.8 µg/mL) | 244 | 460 | 690 | 97 | c1ccc(C2CCCN2c2ccnc3[nH]ccc23)cc1 (centres undefined) | –
32 | 0.8 | 250 (≈ 66.1 µg/mL) | 222 | 630 | 740 | 99 | c1ccc(C2CCCN2c2ccnc3[nH]ncc23)cc1 (centres undefined) | –
33 | – | 250 (≈ 59.1 µg/mL) | – | – | – | – | c1cnc2c(c1)CCN2c1ccnc2[nH]ccc12 | –
34 | – | 2000 (≈ 390 µg/mL) | – | – | – | – | c1cncc(-c2ccnc3[nH]ccc23)c1 | ΔTm [7]: 8.2 °C
35 | 1.6 | 100 (≈ 33.4 µg/mL) | 130 | 630 | 410 | 85 | CCNC(=O)c1cc2c(N3CCCC3c3ccccc3)ccnc2[nH]1 (centres undefined) | –

From ChEMBL document CHEMBL4033791, “Creation of a Novel Class of Potent and Selective MutT Homologue 1 (MTH1) Inhibitors Using Fragment-Based Screening and Structure-Based Drug Design” (J Med Chem, 2018)
